Results on one compound are retold here after patent publication US20240261362A1, “Use Of Vetiver Product In Preparation Of Drug Having Anti-Inflammatory Effect And Capable Of Improving Animal Immunity” (Henan Agricultural University, priority 2023, published 2024).

What all share (assay type): in vivo
The subject of test [1] is xylene-induced mouse auricle swelling. The test is described as follows: Xylene-induced mouse auricle swelling. The settings on record: 0.5 mg/mouse/d intragastric, 7 d. An excerpt:
Female SPF-grade Kunming mice weighing 18 g±1 g were purchased from Beijing HFK Bio-technology Co., Ltd., with a license number SCXK (Beijing) 2019-0008. The mice were acclimated to the environment for 3 d before the experiment, and then fed with the experimental drugs every day at 9 a.m. The mice were randomly divided into a blank control group, a dexamethasone (DXM) group, and high-, medium-, and low-dose groups of the water extract of vetiver (the water extract of vetiver prepared in Example 2) or high-, medium-, and low-dose groups of the Radix Astragali water extract (the Radix Astragali water extract prepared in Comparative Example 1), with 8 mice in each group. The mice in each group were intragastrically administered 1 time a day for 7 consecutive days. At 1 h after the final administration, 30 μL of xylene was added to the right ear of each mouse in each group, and while the left ear was kept as a control. After 30 min of the treatment, the mice were killed by neck breaking, and round ear pieces were collected by punching at a same sites of the left and right ears with a 6 mm diameter, and the ear swelling degrees and swelling inhibition rates were calculated. The results were shown in Table 6, swelling inhibition rate (%)=(average swelling degree of blank group−average swelling degree of administration group)/average swelling degree of blank group×100%.

In test [2] the test system is carrageenan-induced mouse pedal swelling. The test is described as follows: Carrageenan-induced mouse pedal swelling. The following applies: 0.5 mg/mouse/d, 7 d. From the text: (§1) Female SPF-grade Kunming mice weighing 18 g±1 g were purchased from the Beijing HFK Bio-technology Co., Ltd., with a license number SCXK (Beijing) 2019-0008. The mice were acclimated to the environment for 3 d before the experiment, and then fed with the experimental drugs. The mice were randomly divided into a blank control group, a DXM group, and high-, medium-, and low-dose groups of the water extract of vetiver (the water extract of vetiver prepared in Example 2) or high-, medium-, and low-dose groups of the Radix Astragali water extract (the Radix Astragali water extract prepared in Comparative Example 1), with 8 mice in each group. The mice in each group were administered continuously for 7 d. At 1 h after the final administration, 1% carrageenan was subcutaneously injected into the sole of the right hind limb to induce inflammation (at 0.1 mL/mouse). At 0 h, 1 h, 2 h, 3 h, and 4 h of Inflammatory treatment, the thickness of the paws of the mice was measured with a micrometer, and the swelling degree and swelling inhibition rate of the paws were calculated.

Test [3] can be described thus: NO content in serum of mice (carrageenan model). The settings on record: 0.5 mg/mouse/d, 7 d; mice of Use Example 6.
Excerpt: as §1
The mice in each experimental group in Use Example 6 were used as research objects. Blood was collected from eyeballs, serum was separated, stored at −20° C., and level of NO in serum was determined. […]

Compound `C[C@@H]1C[C@H]2[C@@H]3CCC4=CC(=O)C=C[C@]4(C)[C@@]3(F)[C@@H](O)C[C@]2(C)[C@@]1(O)C(=O)CO` [DXM, dexamethasone] registered a Swelling degree in test [1] (30 min after xylene) of 2.033 ± 0.907 mg. The compound further yielded a Swelling inhibition rate in test [1] (vs blank group) of 60.646%. In addition, the “inhibition rate of pedal swelling” value was 14.323% in test [2] (0 h); 29.302% in test [2] (1 h); 34.994% in test [2] (2 h); 25.884% in test [2] (3 h); 13.173% in test [2] (4 h). For the same compound, the pedal swelling degree came out at 0.995 ± 0.076 in test [2] (0 h after carrageenan); 1.090 ± 0.134 in test [2] (1 h after carrageenan); 1.083 ± 0.360 in test [2] (2 h after carrageenan); 1.328 ± 0.040 in test [2] (3 h after carrageenan); 1.438 ± 0.172 in test [2] (4 h after carrageenan). Also, the “NO content in serum” value in test [3] was found to be 7.737 ± 0.431 µmol/mL.
